# According to ChEMBL document CHEMBL1201862, “PubChem BioAssay data set” (2004):
# Calls of active or inactive are those of the source.
# Key:
# [1] = HEp-2 cell cytotoxicity, dose response, cytotoxicity control for RSV inhibitor project, HTS (AID 2410); assay type: functional; conditions: human respiratory syncytial virus
# Cytochrome P450 2C9 = Cytochrome P450 2C9 (Homo sapiens, UniProt P11712)
# Cytochrome P450 1A2 = target: T1, Cytochrome P450 1A2 (Homo sapiens, UniProt P05177);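 further: PubChem cytochrome P450 panel assay, CYP1A2 panel member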
# T1 sequence (P05177 whole entry): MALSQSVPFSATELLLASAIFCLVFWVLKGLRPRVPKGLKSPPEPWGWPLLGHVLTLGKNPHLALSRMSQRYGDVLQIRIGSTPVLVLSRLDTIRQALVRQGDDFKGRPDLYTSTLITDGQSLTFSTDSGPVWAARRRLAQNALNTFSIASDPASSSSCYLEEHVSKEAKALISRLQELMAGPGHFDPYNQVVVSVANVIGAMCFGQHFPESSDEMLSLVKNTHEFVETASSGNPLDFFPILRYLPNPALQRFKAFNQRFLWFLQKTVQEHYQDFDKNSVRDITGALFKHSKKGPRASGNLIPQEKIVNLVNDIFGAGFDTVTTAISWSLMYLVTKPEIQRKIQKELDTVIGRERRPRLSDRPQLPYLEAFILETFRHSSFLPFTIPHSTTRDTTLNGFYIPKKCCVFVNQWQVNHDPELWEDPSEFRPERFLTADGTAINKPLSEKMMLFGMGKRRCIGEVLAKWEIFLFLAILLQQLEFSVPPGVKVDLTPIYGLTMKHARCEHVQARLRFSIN
# [2] = target: T2, Rac GTPase-activating protein 1 (Homo sapiens, UniProt Q9H0H5); test: MgcRacGAP GTPase-activating activity inhibitors, confirmation, biochemical, ADP Hunter fluorescence, primary and confirmatory (AID 624330); assay type: functional
# T2 sequence (Q9H0H5 whole entry): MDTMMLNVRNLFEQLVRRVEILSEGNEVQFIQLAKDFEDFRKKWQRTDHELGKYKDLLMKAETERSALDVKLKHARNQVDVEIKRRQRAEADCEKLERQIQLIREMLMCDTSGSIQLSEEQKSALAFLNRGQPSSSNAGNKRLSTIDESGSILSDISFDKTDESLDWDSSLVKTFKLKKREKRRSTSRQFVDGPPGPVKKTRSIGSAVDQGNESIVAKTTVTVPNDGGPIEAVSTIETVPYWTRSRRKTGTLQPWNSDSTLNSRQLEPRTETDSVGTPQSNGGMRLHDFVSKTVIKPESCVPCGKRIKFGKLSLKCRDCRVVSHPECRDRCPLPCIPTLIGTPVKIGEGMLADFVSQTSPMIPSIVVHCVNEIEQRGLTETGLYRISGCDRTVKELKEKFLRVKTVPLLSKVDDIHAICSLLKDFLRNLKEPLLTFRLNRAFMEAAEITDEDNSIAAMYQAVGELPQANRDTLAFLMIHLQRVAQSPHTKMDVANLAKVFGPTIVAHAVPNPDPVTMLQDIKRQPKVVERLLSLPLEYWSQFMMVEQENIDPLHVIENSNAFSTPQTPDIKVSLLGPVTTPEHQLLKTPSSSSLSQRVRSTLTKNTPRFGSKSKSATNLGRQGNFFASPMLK
# [3] = target: T3, Replicative DNA helicase DnaB (Mycobacterium tuberculosis, UniProt P9WMR3); test: DnaB intein splicing inhibitors, dose response, biochemical, cell-free fluorescence (AID 449749); assay type: functional
# T3 sequence (P9WMR3 whole entry): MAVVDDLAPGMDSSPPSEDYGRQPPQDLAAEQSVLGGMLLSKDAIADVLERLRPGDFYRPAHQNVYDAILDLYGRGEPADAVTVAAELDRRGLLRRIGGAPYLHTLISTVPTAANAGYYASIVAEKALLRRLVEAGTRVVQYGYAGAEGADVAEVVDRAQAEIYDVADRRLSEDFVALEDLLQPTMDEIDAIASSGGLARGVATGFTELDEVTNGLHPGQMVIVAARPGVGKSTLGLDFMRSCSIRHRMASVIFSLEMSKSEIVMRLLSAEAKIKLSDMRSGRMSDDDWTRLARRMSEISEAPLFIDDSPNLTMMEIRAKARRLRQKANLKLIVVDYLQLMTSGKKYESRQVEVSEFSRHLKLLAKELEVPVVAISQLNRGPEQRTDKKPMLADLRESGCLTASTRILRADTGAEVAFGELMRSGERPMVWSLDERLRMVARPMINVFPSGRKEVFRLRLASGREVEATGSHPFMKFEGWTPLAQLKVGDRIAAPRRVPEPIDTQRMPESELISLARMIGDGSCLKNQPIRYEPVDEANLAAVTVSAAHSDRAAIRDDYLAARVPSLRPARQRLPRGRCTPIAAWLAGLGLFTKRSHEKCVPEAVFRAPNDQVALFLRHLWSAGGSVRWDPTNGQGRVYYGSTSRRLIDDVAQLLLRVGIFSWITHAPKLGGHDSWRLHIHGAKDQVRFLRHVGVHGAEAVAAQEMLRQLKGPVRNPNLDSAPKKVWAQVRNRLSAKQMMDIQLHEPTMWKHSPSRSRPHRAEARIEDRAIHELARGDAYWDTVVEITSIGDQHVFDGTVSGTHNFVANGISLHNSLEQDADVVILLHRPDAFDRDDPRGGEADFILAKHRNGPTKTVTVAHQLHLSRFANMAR
# Protein RecA = target: T4, Protein RecA (Mycobacterium tuberculosis, UniProt P9WHJ3); test: Fluorescence Cell-Free Homogeneous Dose Retest to Identify Inhibitors of RecA-Intein Splicing Activity. [Related pubchem assays (depositor defined):AID2097, AID2223, AID489010, AID492950]; assay type: functional
# T4 sequence (P9WHJ3 whole entry): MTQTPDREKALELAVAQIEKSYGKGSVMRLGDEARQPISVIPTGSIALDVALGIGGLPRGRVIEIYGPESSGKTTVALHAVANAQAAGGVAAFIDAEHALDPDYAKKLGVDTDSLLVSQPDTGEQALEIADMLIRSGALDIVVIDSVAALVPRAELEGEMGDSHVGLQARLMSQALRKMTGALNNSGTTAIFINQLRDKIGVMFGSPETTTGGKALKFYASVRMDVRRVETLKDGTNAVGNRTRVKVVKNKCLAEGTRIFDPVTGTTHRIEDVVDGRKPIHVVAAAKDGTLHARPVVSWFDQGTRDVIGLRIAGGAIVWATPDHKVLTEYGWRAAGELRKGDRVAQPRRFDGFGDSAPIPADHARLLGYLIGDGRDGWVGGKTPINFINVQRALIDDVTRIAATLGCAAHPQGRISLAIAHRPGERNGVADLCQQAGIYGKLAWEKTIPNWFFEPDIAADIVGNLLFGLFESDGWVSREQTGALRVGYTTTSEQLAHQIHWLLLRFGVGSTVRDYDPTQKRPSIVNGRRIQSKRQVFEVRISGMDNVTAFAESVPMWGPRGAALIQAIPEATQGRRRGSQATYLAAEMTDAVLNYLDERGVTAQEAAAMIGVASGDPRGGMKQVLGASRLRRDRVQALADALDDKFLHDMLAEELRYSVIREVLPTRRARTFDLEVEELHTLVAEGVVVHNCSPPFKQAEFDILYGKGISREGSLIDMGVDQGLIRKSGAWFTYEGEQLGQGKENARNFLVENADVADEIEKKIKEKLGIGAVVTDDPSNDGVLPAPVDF
# P388/ADR = test: cells; assay type: functional; conditions: Mus musculus
# Chain of Cytochrome P450 2C9 (P11712 whole entry): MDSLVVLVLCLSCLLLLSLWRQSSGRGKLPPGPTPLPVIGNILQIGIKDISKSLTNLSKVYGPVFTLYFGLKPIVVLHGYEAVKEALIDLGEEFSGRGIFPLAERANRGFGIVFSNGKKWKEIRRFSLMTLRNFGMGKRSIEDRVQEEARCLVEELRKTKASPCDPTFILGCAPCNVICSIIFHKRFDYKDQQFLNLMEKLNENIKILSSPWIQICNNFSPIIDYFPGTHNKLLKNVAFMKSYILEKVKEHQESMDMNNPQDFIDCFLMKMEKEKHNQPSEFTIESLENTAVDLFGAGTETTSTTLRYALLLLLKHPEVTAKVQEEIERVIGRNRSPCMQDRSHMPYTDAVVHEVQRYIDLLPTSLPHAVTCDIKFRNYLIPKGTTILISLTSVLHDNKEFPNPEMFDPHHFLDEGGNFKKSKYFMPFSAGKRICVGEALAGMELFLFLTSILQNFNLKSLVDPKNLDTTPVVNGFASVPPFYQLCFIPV
compound,measurement,setting,value
COC(=O)c1ccc2c(=O)n(CCO)c(=S)[nH]c2c1,CC50,[1],25.2 µM (active)
Cc1ccc(OCC(=O)NC2=NCCS2)cc1,AC50,Cytochrome P450 2C9,10 µM (inconclusive)
NS(=O)(=O)c1cccc(NC(=O)COC(=O)c2cc(-c3ccc(Cl)cc3)nc3ccccc23)c1,CC50,[1],18.5 µM (active)
COC(=O)c1ccccc1OCC(=O)N1CCN(c2ccc(Cl)cc2)CC1,AC50,Cytochrome P450 1A2,14.1 µM (inconclusive)
same,AC50,Cytochrome P450 2C9,14.1 µM (inconclusive)
O=C(CNCc1ccc(Cl)cc1)Nc1ccc2c(c1)OCCO2,IC50,[2],156 µM (active)
CCn1c(SCc2ccc(Cl)cc2Cl)nc2nc3c(cc2c1=O)CCCC3,AC50,Cytochrome P450 2C9,5.01 µM (inconclusive)
CCOC(=O)[C@H](N)/C=C(\C)CP(=O)(O)O,AC50,Cytochrome P450 2C9,25.1 µM (inconclusive)
CN1C(=O)C(Cc2ccc3c(c2)OCO3)C(=O)N(C)C1=O,AC50,[3],35.3 µM (active)
same,EC50,Protein RecA,10 µM (active)
COc1cc(N)c(Cc2nccc3cc(OC)c(OC)cc23)cc1OC,AC50,[3],> 380 µM (inactive)
same,EC50,Protein RecA,31.7 µM (active)
Cc1ccc(N2C(S)=C(C#N)C(=O)NC2c2cccs2)cc1 (stereo not given),IC50,[2],128 µM (active)
c1ccc(SC(Sc2ccccc2)c2ccc3c(c2)OCO3)cc1,AC50,Cytochrome P450 1A2,0.501 µM (inconclusive)
CNc1cc([N+](=O)[O-])ccc1OCc1ccccc1,CC50,[1],18.7 µM (active)
Cc1ccccc1OC[C@H](O)CO,AC50,Cytochrome P450 1A2,15.8 µM (inconclusive)
COc1ccc(S(=O)(=O)NC2(C(F)(F)F)N=C3SCCN3C2=O)cc1 (stereo not given),AC50,Cytochrome P450 1A2,31.6 µM (inconclusive)
same,AC50,Cytochrome P450 2C9,28.2 µM (inconclusive)
CC1=NNC(=O)C1Cc1ccccc1 (stereo not given),AC50,[3],0.651 µM (active)
same,EC50,Protein RecA,0.294 µM (active)
Cc1onc(-c2c(Cl)cccc2Cl)c1C(=O)N1C(C)CCCC1C (stereo not given),AC50,[3],118 µM (active)
same,EC50,Protein RecA,> 380 µM (inactive)
COc1ccc(/C=N/N=C(\N)c2nonc2N)cc1OC,CC50,[1],30.9 µM (active)
C/C=C(\C)C(=O)OC1C2C(C)=CC(=O)C(O)C2(C)C2C3(O)OCC24C1OC(=O)C(OC(C)=O)C4C(C)C3O (stereo not given),GI50,P388/ADR,0.319 µM (active)
Oc1ccc(-c2nccs2)cc1,IC50,[2],28.1 µM (active)
C=CCc1cccc(/C=N/c2cnc(O)nc2O)c1O,AC50,[3],> 380 µM (inactive)
same,EC50,Protein RecA,> 380 µM (inconclusive)
CC1(C)OC(C)(C)C(/C=N/c2ccc(O)cc2)=C1O,IC50,[2],17 µM (active)
CN(C)/C=N/c1nc(-c2ccc3ccccc3c2)cs1,CC50,[1],22.8 µM (active)
O=C(N/N=C/c1ccc(O)cc1)NC12CC3CC(CC(C3)C1)C2,IC50,[2],55.9 µM (active)
